Earlier results on one molecule are cited in paper PMC5389743 (Investigative Ophthalmology & Visual Science, 2017).

Data set [1] concerns α-chymotrypsin–induced rabbit glaucoma model. The note with it: 0.4% Δ^8-THC submicron emulsion, ocular hypertensive rabbits.
Data set [2] relates to normotensive rabbits. The note with it: 0.4% Δ^8-THC submicron emulsion, after 2 hours.

In the case of `CCCCCc1cc(O)c2c(c1)OC(C)(C)[C@@H]1CC=C(C)C[C@@H]21` [Δ^8-THC], the “Drop of IOP” value in data set [1] is 6.5 mm of Hg. Also, the “Difference between the IOP with and without treatment” value in data set [2] is reported as 2 mm of Hg.
